The test system of test [1] is Nrf2 transcription factor (Nrf2-ARE). Description: Nrf2-ARE induction, luciferase activity in AREc32 (MCF7 cells stably transfected with ARE-LUC). In kind it is cell-based. To be noted: Homo sapiens, 24 h, basal = 1, read-out: Relative Luciferase activity (response versus basal). The procedure:
For the study of Nrf2 transcription factor, the cellular line AREC32 was used, which is characterized for being stably transfected with the reporter gene of Luciferase linked to the ARE sequence. In the presence electrophilic compounds or oxidative stress, Nrf2 factor binds to ARE sequences, activating luciferase expression and producing a proportional quantity of luciferase. The AREc32 cells were cultured in DMEM media with glutamax, supplemented with 10% fetal bovine serum (FBS), 1% penicillin-streptomycin and 1.6% geneticine (G418) (obtained from GIBCO, Madrid, Spain). Cells were cultured in 75 cm flasks with 11 mL of specific media, incubated at 37° C. and 5% of CO2. Cells were passed every 4-6 days (1:4), whenever the confluence reached 80%. For the experiments, cells were cultured in transparent surface 96 well plates at a density of […] with 100 μL/well. After 24 h in culture, cells were treated with the compounds at different concentrations (1, 10, 30 and 60 μM) during 24 h at 37° C. and 5% CO2. In every experiment it was also included a basal variable, a variable with 10 μM tert-butyl hydroquinone (TBHQ) (positive control) and the variables of the study in a final volume of 100 μL. After an incubation of 24 h with the compounds, luciferase activity was measured by bioluminescence using the commercial kit “Luciferase assay system” (Promega E1500). For that, treatments were removed and cells were washed with 100 μL of PBS 0.1 M. After washing, 20 μL of “lysis buffer” reactive was added to each well. 10 minutes later, luminescence was measured using the multi-well reader FluoStar optima (BMG labtech).
Luminescence was measured in arbitrary units and is directly proportional to luciferase quantity in the wells, which is also directly proportional to Nrf2 transcription factor induction by the specific compound at the established concentration. Measurements were made in duplicate and values were normalized to the basal luminescence value, considered as 1.
The results of Nrf2 induction obtained for the compounds 1 to 16 are shown in Table 1 and are expressed as induction, considering 1 the non-treated cells.

The next test concerns SH-SY5Y cells. As to the kind of experiment: Neuroprotection against oxidative stress induced by menadione, pre- and co-incubation, MTT. The format is cell-based. To be noted: Homo sapiens, 24 h, compound 1 μM pre- and co-incubation, Menadione (8 mM); for viability at 1 µM: read-out: % Survival. The procedure:
SH-SY5Y cells [ECACC 94030304], in 5 to 16 passage after defreezing were maintained in Eagle media modified by Dulbecco (DMEM) containing 15 non-essential amino acids and supplemented with 10% fetal bovine serum, 1 mM glutamine, 50 units/mL penicillin/streptomycin (obtained from GIBCO, Madrid, Spain). Cells were seeded in flasks containing supplemented media and were maintained in an incubator at 37° C. and 5% CO2. 1:4 passes were performed twice per week. For the experiments, cells were seeded in 24 well-plates at a density of 2×10^5 cells/well, or in 96 well-plates at a density of 8×10^4 cells/well. For cytotoxicity experiments, cells were treated with the compounds before confluence with DMEM media supplemented with fetal bovine serum 1%.
In order to assess cellular viability, we measured the metabolic reduction of 3-(4,5-Dimethylthiazol-2-yl)-2,5 diphenyltetrazolium bromide (MTT). MTT is an indirect assay to measure cellular viability. It is a colorimetric method based on the reduction of 3-(4,5-Dimethylthiazol-2-yl)-2,5 diphenyltetrazolium. This process is performed by the mitochondrial enzyme succinate-dehydrogenase present in metabolic active cells. Thus, the water-soluble yellow MTT (tetrazolium salt) is transformed into a insoluble purple compound (formazan). Quantity of living cells is directly proportional to the quantity of formazan (Mosmann, 1983, J Immunol Methods, 65: 55-63). […] Therefore, with this assay we can measure cellular surviving and proliferation and also, we can determine the cytotoxicity of potential neuroprotective compounds. In order to assess cellular viability in SH-SY5Y cell line, we added 30 μl/well of MTT (5 mg/mL) and after 2 h, medium was carefully removed to avoid losing the formazan and was diluted in 300 μL of DMSO. Afterwards, samples were transferred to a 96 well-plate and the absorbance was measured at 570 nm using a absorbance/fluorescence reader FluoStar optima®. Every MTT assay was performed in triplicates. Absorbance values obtained with the toxic alone were subtracted to the absorbance values obtained in basal conditions (without treatment). That result was considered as the 100% of cell death and the values obtained with the compounds in the presence of the toxic stimulus were normalized as percentages of that value. For determining the surviving percentage, those percentages of cell death were subtracted to 100.
Neuroprotection elicited by the compounds of the invention 1-16: The activation of Nrf2-ARE pathway by different compounds exerts neuroprotective effects against toxic models based on oxidative stress via the expression of cytoprotective genes. […] We evaluated the neuroprotective potential of the compounds using the human neuroblastoma cell line using the following cytotoxicity models: 1) oxidative stress induced by rotenone+oligomycin, both blockers of the electron transport chain as previously described (Halliwell, 1992, J Neurochem, 59: 1609-23, Newhouse y col., 2004, Toxicol Sci, 79: 137-46), and 2) cytotoxicity induced by the electrophilic compound Menadione. This compound produces oxidative stress after being metabolized by microsomal enzymes in the cell which produces hydroxyl radical and oxygen reactive species. As a consequence, there is a depolarization of mitochondrial membrane generating a release of apoptotic factors such as cytochrome c, and activating the caspase cascade (Loor y col., 2010, Free Radic Biol Med, 49: 1925-36, Chuang y col., 2002, Cancer Res, 62: 6246-54). Caspase 3 activation can produce the lysis of proteins and induce DNA fragmentation, leading to cell death (Gerasimenko y col., 2002, J Cell Sci, 115: 485-97).
To further confirm the neuroprotective capacity in another model of oxidative stress, menadione was selected as toxic stimulus. […]

Consider `CC(=O)NCCc1c[nH]c2ccc(OC(=O)/C=C/c3cccc(C(F)(F)F)c3)cc12` [Compound 14, 3-(2-acetamidoethyl)-1H-indol-5-yl (E)-3-(3-(trifluoromethyl)phenyl)acrylate], for which, in test [1], the fold induction at 10 µM is 1.34 ± 0.2, the fold induction at 30 µM was 1.64 ± 0.2 and the fold induction at 60 µM turned out to be 2.13 ± 0.2. For the same molecule, in the test on SH-SY5Y cells, the % protection against menadione toxicity at 1 µM was 44.8% and the viability at 1 µM was 78.5 ± 3.03%.
In the case of `CC(=O)NCCc1c[nH]c2ccc(OC(=O)/C=C/c3ccc(C(F)(F)F)cc3)cc12` [Compound 15, 3-(2-acetamidoethyl)-1H-indol-5-yl (E)-3-(4-(trifluoromethyl)phenyl)acrylate], in test [1], the fold induction at 10 µM turned out to be 2.34 ± 0.2, the fold induction at 30 µM amounted to 4.99 ± 0.5 and the fold induction at 60 µM came to 28.9 ± 2.9. In the test on SH-SY5Y cells, the % protection against menadione toxicity at 1 µM came out at 31.6% and the viability at 1 µM is 73.2 ± 3.43%.
With `CC(=O)NCCc1c[nH]c2ccc(OC(=O)/C=C/c3ccc([N+](=O)[O-])cc3)cc12` [Compound 16, 3-(2-acetamidoethyl)-1H-indol-5-yl (E)-3-(4-nitrophenyl)acrylate], in test [1], the fold induction at 10 µM is 1.69 ± 0.1, the fold induction at 30 µM was determined as 2.41 ± 0.1 and the fold induction at 60 µM came out at 3.19 ± 0.1. In the test on SH-SY5Y cells, the % protection against menadione toxicity at 1 µM worked out at 53.6% and the viability at 1 µM stood at 84.3 ± 2.15%.

(Values after patent US20180105492A1, “COMPOUNDS DERIVED FROM 3-ALKYLAMINE-1H-INDOLYL ACRYLATE AND THEIR USE IN THE TREATMENT OF NEURODEGENERATIVE DISEASES” (FUNDACION PARA LA INVESTIGACION BIOMEDICA DEL HOSPITAL …, priority 2014, published 2018).)
